A short description of data set [1]: excess molar enthalpy (molar enthalpy of mixing); xn = mol fraction of the nth substance listed. As to conditions: 298.15 K; 101.33 kPa; Liquid; Flow calorimetry; x2 = 0.
For data set [2] the following is noted: 101.33 kPa, Liquid; for viscosity: Capillary tube (Ostwald / Ubbelohde) method; for mass density: Speicific gravity balance.
Data set [3] is described as follows: molar heat capacity at constant pressure. The settings on record: 101.33 kPa, Liquid, Vacuum adiabatic calorimetry.

Numbers after ± are expanded uncertainties.

The values that follow come from the NIST ThermoML archive (doi:10.1016/j.fluid.2010.07.005).

For the compound `CO` [methanol] + COP(=O)([O-])OC.Cn1cc[n+](C)c1, the excess molar enthalpy in data set [1] amounted to 0 ± 0.00526 kcal/mol.

Take `O` [water] + COP(=O)([O-])OC.Cn1cc[n+](C)c1: the excess molar enthalpy in data set [1] was found to be 0 ± 0.055 kcal/mol.

As to `CCO` [ethanol] + COP(=O)([O-])OC.Cn1cc[n+](C)c1, in data set [1], the excess molar enthalpy was 0 ± 0.0086 kcal/mol.

As to `COP(=O)([O-])OC.Cn1cc[n+](C)c1` [1,3-dimethylimidazolium dimethylphosphate], the viscosity in data set [2] (298.15 K) was determined as 271.86 ± 8 mPa·s; in data set [2] (303.15 K), 188.3 ± 4.5 mPa·s; in data set [2] (308.15 K), 139.49 ± 2.6 mPa·s; in data set [2] (313.15 K), 110.25 ± 1.6 mPa·s; in data set [2] (318.15 K) it was 84.44 ± 0.88 mPa·s; in data set [2] (323.15 K) it was 69.99 ± 0.59 mPa·s. In addition, the mass density in data set [2] (298.15 K) turned out to be 1258.7 ± 1.2 kg/m3; in data set [2] (303.15 K), 1255.9 ± 1.2 kg/m3; in data set [2] (308.15 K), 1253 ± 1.2 kg/m3; in data set [2] (313.15 K), 1249.1 ± 1.2 kg/m3; in data set [2] (318.15 K), 1245.2 ± 1.2 kg/m3; in data set [2] (323.15 K), 1241.5 ± 1.2 kg/m3. Also, the “molar heat capacity at constant pressure” value is 282.83 ± 13 J/K/mol in data set [3] (298.15 K), 296.61 ± 13 J/K/mol in data set [3] (303.15 K), 310.83 ± 13 J/K/mol in data set [3] (313.15 K) and 321.05 ± 13 J/K/mol in data set [3] (323.15 K).
